Test results as given in patent US20150344457A1, “METHODS OF INHIBITING PRMT5” (EPIZYME, INC., priority 2012, published 2015).

These molecules were tested against T1, PRMT5/MEP50 (Homo sapiens, UniProt O14744) (assay: PRMT5 Biochemical Assay (PRMT5/MEP50 enzyme assay on peptide substrate, 3H-SAM Flashplate)). Conditions: Table D-2; read-out: Biochemical IC50.
T1 construct: Expressed full-length human Flag-PRMT5/6His-MeP50 protein complex was purified; made in house; host or cells: Spodoptera frugiperda (SF9) insect cells, baculovirus (pDEST8)
T1 sequence (O14744 with tags, fused parts or gaps): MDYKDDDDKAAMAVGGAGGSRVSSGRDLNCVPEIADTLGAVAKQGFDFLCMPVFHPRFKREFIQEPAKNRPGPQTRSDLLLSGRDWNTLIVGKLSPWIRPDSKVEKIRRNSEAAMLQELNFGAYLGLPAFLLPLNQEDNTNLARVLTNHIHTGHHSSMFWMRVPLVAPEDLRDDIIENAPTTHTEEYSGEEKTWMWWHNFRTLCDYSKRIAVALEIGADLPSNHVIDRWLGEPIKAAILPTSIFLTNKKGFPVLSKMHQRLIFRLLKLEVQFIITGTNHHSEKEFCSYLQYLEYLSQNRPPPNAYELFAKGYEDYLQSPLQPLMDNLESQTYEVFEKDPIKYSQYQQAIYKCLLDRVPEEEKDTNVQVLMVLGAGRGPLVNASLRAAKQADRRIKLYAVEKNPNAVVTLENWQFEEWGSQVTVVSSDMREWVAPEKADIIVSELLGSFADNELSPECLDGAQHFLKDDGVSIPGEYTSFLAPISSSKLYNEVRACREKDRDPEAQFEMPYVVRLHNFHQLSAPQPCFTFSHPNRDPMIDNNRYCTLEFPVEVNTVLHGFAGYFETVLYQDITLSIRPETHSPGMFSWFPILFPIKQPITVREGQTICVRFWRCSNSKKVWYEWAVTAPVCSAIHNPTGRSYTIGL
T1 sequence (Q9BQA1 with tags, fused parts or gaps partner limits assumed): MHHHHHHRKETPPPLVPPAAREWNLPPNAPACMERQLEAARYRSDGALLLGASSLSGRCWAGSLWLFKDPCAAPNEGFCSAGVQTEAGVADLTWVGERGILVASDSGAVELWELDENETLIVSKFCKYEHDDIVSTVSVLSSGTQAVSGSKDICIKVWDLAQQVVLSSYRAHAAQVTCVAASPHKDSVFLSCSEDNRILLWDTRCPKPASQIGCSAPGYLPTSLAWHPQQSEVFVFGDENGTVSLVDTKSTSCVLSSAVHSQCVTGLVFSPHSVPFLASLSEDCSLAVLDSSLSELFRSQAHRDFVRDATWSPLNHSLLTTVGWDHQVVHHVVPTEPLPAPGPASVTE

IC50, 101 to 1000 nM:
N#Cc1ccc(-c2cccc(OCC(O)CN3CCc4ccccc4C3)c2)cc1 (stereo not drawn) [Compound D94], N#Cc1ccccc1-c1cccc(OCC(O)CN2CCc3ccccc3C2)c1 (stereo not drawn) [Compound D93], Oc1cccc(-c2cccc(OCC(O)CN3CCc4ccccc4C3)c2)c1 (stereo not drawn) [Compound D95]
